This is an account of results in article PMC6131539, “Behavioral Effects of a Potential Novel TAAR1 Antagonist” (Frontiers in Pharmacology, 2018).

pKi: −log10 of the molar value.

The subject of assay [1] is C57BL/6J mice. Put plainly: Cocaine-induced locomotor activity, co-injection, C57BL/6J mice. The assay is classed as in vivo. Conditions: 60 min. On the procedure: (§1) Experimentally naïve mice, of at least 12 weeks of age, were used for all behavioral experiments. The mice were randomly assigned to treatment or control groups, balanced by sex and weight. Locomotor activity was assessed using the automated locomotor analysis monitors (Omnitech Electronics, Columbus, OH, United States). The apparatus included four open field monitors. Each Open Field monitor consisted of sets of 16 light beams arrayed in the horizontal X and Y axes. The hardware detected beams broken by the animal, which allowed the software to determine the location of the mouse in the cage. Total distance covered by mice was used to characterize locomotor activity of the animals. The monitors were divided into four compartments (20 cm × 20 cm). Animals were tested individually for defined periods with 5-min intervals. The mice were first weighed and then placed into the apparatus, allowing for 30 min habituation. Following the habituation, the mice were removed from the al apparatus and injected with drugs (see below for administration) or vehicle and returned immediately to the locomotor chamber. The locomotor activity was then measured for additional 1 h. After the experiments, the animals were euthanized by cervical dislocation.
All drug solutions were prepared freshly on the day of the experiment and injected i.p. at the volume of 10 ml/kg. […] Amphetamine was dissolved in 0.9% saline at a concentration of 0.2 mg/mL.
Since compound 22 enhanced amphetamine-induced locomotor response, we assessed if compound 22 could also enhance cocaine-induced locomotion in WT C57BL/6J mice (Figure 3).
The locomotor activity was assessed for 60 min after the injection. […] Data are means ± SEM; N = 7–9. One way ANOVA was performed [F(3,28) = 7.138, p = 0.001] followed by Dunnett’s post hoc analyses (^∗p < 0.05, ^∗∗∗p < 0.001).

In assay [2] the test system is C57BL/6J mice. Briefly: Stereotypic counts, co-injection with amphetamine, C57BL/6J mice. Conditions: 5 and 20 mg/kg co-administered with amphetamine 2 mg/kg; sum over 60 min. The assay is classed as in vivo. On the procedure:
as §1, with “Following the habituation, the mice were removed from the al apparatus and injected with drugs (see below for administration) or vehicle and returned immediately to the locomotor chamber.” left out, “After the experiments, the animals were euthanized by cervical dislocation.” left out
(A) Wild type C57BL/6J mice were first habituated for 30 min followed by the co-injection of amphetamine (2 mg/kg) and saline or compound 22 at doses 5, 15, 20, 25, 30, and 50 mg/kg. The locomotor activity was assessed for 60 min after the injection. Sum of stereotypic counts assessed over 60 min after the injection of amphetamine and compound 22. […] The locomotor activity was assessed for 60 min after the injection. […]

The test system of assay [3] is WT littermates (C57BL/6J × 129S2/Sv). Put plainly: Amphetamine-induced locomotor activity, co-injection, WT littermates. The assay is classed as in vivo, mice. The following applies: 5 mg/kg co-injected with amphetamine 2 mg/kg, p = 0.049. The protocol:
(§2) The Taarl^-/- (TAAR1-KO) mice were obtained from Lundbeck ([Wolinsky et al., 2007]). All wild type (WT) and TAAR1-KO mice used for experiments were generated from TAAR1-KO heterozygous mice in a C57BL/6J x 129S1/Sv mixed background.
as §1, with “chamber.” for “chamber. The locomotor activity was then measured for additional 1 h. After the experiments, the animals were euthanized by cervical dislocation.”

For assay [4] the test system is unchanged. Put plainly: Cocaine-induced locomotor activity, co-injection, WT littermates. The assay is classed as in vivo, mice. Conditions: 5, 15 and 25 mg/kg co-injected with cocaine 10 mg/kg. The protocol:
as §2
as §1, with “Following the habituation, the mice were removed from the al apparatus and injected with drugs (see below for administration) or vehicle and returned immediately to the locomotor chamber.” left out, “After the experiments, the animals were euthanized by cervical dislocation.” left out
The locomotor activity was assessed for 60 min following the injection. […]

The next assay deals with Dopamine Transporter (Homo sapiens, UniProt Q01959). Put plainly: PDSP binding, secondary screen. On the procedure:
(§3) This was achieved through the identification of potential pharmacological targets of compound 22 using the Psychoactive Drug Screening Program (PDSP) at University of North Carolina-Chapel-Hill. PDSP provides a platform for screening novel psychoactive compounds on human proteins expressed in the central nervous system in order to identify their biological target(s) ([Besnard et al., 2012]). Binding studies were done on 47 targets at a single dose of compound 22 (10 μM; Supplementary Table S1). This primary screen yielded a total of 5 hits for compound 22 (Table 2). These hits were the serotonin, dopamine, and norepinephrine transporters, as well as the sigma 1 and sigma 2 receptors.

Assay [5] has as its target Norepinephrine Transporter (Homo sapiens, UniProt P23975). Put plainly: PDSP binding, secondary screen. The protocol: as §3
A further assay deals with Serotonin Transporter (Homo sapiens, UniProt P31645). Briefly: PDSP binding, secondary screen. On the procedure:
as §3

The next assay deals with AMPA. Briefly: PDSP binding, primary screen. The following applies: 10 μM. Details: species or system human. On the procedure: as §3
(§4) Supplemental Table 1. Compound 22 binding studies from PDSP: primary screen for compound 22 and subsequent hits (50% cut-off, hits highlighted in red). The primary screen was performed by PDSP as described previously (Besnard et al., 2012).

In a further assay the test system is BZP site. Briefly: PDSP binding, primary screen. The following applies: 10 μM. On the set-up: species or system human. The protocol: as §3, §4
The next assay deals with GABAA. Put plainly: PDSP binding, primary screen. The following applies: 10 μM. On the set-up: species or system human. On the procedure:
as §3, §4

The test system of another assay is NMDA. Briefly: PDSP binding, primary screen. Details: species or system human. The following applies: 10 μM. On the procedure:
as §3, §4

A further assay deals with PBR. Put plainly: PDSP binding, primary screen. On the set-up: species or system human. The following applies: 10 μM. The protocol:
as §3, §4

Another assay deals with Sigma 2. Put plainly: PDSP binding, primary screen. On the set-up: species or system human. The following applies: 10 μM. The protocol:
as §3, §4

Chain of Dopamine Transporter (Q01959 whole entry): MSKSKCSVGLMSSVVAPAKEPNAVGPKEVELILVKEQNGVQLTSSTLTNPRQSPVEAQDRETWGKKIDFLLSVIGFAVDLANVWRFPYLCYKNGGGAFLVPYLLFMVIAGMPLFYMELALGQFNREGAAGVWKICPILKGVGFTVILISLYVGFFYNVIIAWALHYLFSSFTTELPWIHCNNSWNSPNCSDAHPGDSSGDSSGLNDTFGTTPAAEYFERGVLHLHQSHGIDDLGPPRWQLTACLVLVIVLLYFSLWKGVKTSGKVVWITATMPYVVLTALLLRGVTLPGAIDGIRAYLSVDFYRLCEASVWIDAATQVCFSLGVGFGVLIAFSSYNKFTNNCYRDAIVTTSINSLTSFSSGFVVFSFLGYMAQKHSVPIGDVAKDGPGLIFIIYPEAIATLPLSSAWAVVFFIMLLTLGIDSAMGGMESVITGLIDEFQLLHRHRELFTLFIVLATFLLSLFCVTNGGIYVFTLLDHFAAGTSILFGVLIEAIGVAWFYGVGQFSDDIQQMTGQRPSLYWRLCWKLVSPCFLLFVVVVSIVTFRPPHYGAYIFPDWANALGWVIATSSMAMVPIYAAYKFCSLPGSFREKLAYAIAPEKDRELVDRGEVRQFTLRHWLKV
Chain of Norepinephrine Transporter (P23975 whole entry): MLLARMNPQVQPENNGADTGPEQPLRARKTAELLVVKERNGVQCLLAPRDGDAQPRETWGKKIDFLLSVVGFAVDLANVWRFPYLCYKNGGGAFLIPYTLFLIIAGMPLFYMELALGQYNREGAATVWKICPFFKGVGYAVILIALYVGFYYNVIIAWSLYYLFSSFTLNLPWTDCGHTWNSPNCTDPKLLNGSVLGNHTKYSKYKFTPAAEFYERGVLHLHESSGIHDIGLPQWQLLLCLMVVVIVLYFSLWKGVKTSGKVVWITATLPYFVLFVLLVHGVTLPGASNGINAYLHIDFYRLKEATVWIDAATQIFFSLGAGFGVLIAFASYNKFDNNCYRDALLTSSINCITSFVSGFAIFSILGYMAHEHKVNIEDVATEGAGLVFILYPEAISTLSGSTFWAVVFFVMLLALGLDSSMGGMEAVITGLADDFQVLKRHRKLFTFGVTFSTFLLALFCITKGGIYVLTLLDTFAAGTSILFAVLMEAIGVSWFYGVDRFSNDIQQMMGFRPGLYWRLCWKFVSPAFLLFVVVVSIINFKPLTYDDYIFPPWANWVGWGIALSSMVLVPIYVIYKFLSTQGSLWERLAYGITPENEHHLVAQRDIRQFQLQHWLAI
Chain of Serotonin Transporter (P31645 whole entry): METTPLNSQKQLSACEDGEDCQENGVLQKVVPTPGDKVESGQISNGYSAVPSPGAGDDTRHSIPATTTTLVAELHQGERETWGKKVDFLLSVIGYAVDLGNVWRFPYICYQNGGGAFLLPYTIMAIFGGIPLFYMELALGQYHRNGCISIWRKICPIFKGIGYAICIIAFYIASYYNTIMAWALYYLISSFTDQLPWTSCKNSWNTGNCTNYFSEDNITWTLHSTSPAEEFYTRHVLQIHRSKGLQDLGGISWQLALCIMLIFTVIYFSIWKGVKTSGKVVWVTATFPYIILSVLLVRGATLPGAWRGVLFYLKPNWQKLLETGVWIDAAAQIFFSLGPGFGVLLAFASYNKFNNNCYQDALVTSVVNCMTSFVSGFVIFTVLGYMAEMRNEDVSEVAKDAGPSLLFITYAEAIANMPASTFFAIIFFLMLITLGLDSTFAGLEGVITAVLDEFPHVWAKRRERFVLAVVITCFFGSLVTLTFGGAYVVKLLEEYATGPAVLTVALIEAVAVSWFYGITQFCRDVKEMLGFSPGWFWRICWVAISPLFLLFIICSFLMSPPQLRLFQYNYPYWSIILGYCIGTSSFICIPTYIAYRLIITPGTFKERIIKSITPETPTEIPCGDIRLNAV

For the compound `Clc1ccc(CNCc2ccc(Cn3cncn3)cc2)c(Cl)c1` [compound 22], the “increase in cocaine-induced locomotor activity” value is on record as 77% in the assay on C57BL/6J mice [1] (5 mg/kg i.p. co-injected with cocaine 10 mg/kg, p = 0.03); 84% in the assay on C57BL/6J mice [1] (15 mg/kg i.p. co-injected with cocaine 10 mg/kg, p = 0.02); 124% in the assay with C57BL/6J mice [1] (25 mg/kg i.p. co-injected with cocaine 10 mg/kg, p = 0.003). Besides, the stereotypic counts result in the assay with C57BL/6J mice [2] is “statistically significant increase in stereotypic counts”. Also, the “potentiation of amphetamine locomotor response” value in assay [3] turned out to be 44%. For the same compound, the “effect on locomotor stimulating effects of cocaine” value in assay [4] was “significantly potentiate”. The negative logarithm of the Ki (pKi) is 5.98 at Dopamine Transporter, 5.72 in [5] and 5.74 at Serotonin Transporter. Besides, the “% Inhibition” value is 13.4% in the assay with AMPA; 1.1% with BZP site; 5.2% in the assay with GABAA; -1.7% with NMDA; 23.1% with PBR; 78.4% in the assay with Sigma 2.
